Results: PubChem BioAssay AID328 (DTP/NCI, 2004)
Several values for one entry are separate records, joined by “and”; a condition that tells them apart may be missing. Equal entries are not always repeated. Inconclusive results and toxic doses are left out.

Tested on: BDF1 mice, P388 leukemia ip, median survival T/C
Test: NCI In Vivo Anticancer Drug Screen. Data for tumor model P388 Leukemia (intraperitoneal) in B6D2F1 (BDF1) mice
Details: endpoint: median survival time, higher = longer survival
In short: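 Vehicle-dosed animals serve as the reference; survival of compound-dosed, tumour-implanted mice is divided by it.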

[1] = dose: 25.0 mg/kg/injection, schedule: Q01DX009 (ip), vehicle: saline with Tween-80
[2] = dose: 50.0 mg/kg/injection, schedule: Q01DX009 (ip), vehicle: saline with Tween-80
[3] = dose: 100.0 mg/kg/injection, schedule: Q01DX009 (ip), vehicle: saline with Tween-80
[4] = dose: 200.0 mg/kg/injection, schedule: Q04DX003 (ip), vehicle: saline
[5] = dose: 400.0 mg/kg/injection, schedule: Q04DX003 (ip), vehicle: saline
[6] = dose: 200.0 mg/kg/injection, schedule: Q01DX009 (ip), vehicle: saline with Tween-80
[7] = dose: 400.0 mg/kg/injection, schedule: Q04DX002 (ip), vehicle: saline with Tween-80
[8] = dose: 400.0 mg/kg/injection, schedule: Q01DX009 (ip), vehicle: saline with Tween-80
[9] = dose: 100.0 mg/kg/injection, schedule: Q04DX003 (ip), vehicle: saline with Tween-80
[10] = dose: 200.0 mg/kg/injection, schedule: Q04DX003 (ip), vehicle: saline with Tween-80
[11] = dose: 400.0 mg/kg/injection, schedule: Q04DX003 (ip), vehicle: saline with Tween-80
[12] = dose: 12.5 mg/kg/injection, schedule: Q01DX001 (ip), vehicle: saline with Tween-80
[13] = dose: 25.0 mg/kg/injection, schedule: Q01DX001 (ip), vehicle: saline with Tween-80
[14] = dose: 50.0 mg/kg/injection, schedule: Q01DX001 (ip), vehicle: saline with Tween-80
[15] = dose: 100.0 mg/kg/injection, schedule: Q04DX003 (ip), vehicle: saline

In the case of `C=C/C=C\N(CC)CC`, the T/C (dose: 0.78 mg/kg/injection, schedule: Q01DX009 (ip), vehicle: water) is reported as 110 % of control, the T/C (dose: 1.56 mg/kg/injection, schedule: Q01DX009 (ip), vehicle: water) is reported as 109 % of control and 112 % of control and the T/C (dose: 3.12 mg/kg/injection, schedule: Q01DX009 (ip), vehicle: water) is reported as 107 % of control and 121 % of control. For the same molecule, the T/C (dose: 6.25 mg/kg/injection, schedule: Q01DX009 (ip), vehicle: water) was 89 % of control and 100 % of control and 102 % of control, the T/C (dose: 12.5 mg/kg/injection, schedule: Q01DX009 (ip), vehicle: water) was 102 % of control and 123 % of control and the T/C (dose: 25.0 mg/kg/injection, schedule: Q01DX009 (ip), vehicle: water) was 89 % of control and 116 % of control and 118 % of control.
For `C=C(C)C(=O)NCC(=O)NC(CC(C)C)C(=O)Oc1ccc([N+](=O)[O-])cc1` (stereo not drawn), the T/C [1] was 97 % of control, the T/C [2] was 97 % of control and the T/C [3] was 90 % of control.
For `Cc1ncc([N+](=O)[O-])n1CCSC(Cl)(Cl)Cl`, the T/C [4] was 101 % of control and the T/C [5] was 111 % of control.
With `O=C1Oc2ccccc2C(=O)/C1=C1/C=C(c2ccccc2)SS1` the T/C [2] was 90 % of control, the T/C [3] was 88 % of control and the T/C [6] was 90 % of control.
With `CCCCCCCCCOc1ccc(C=O)cc1OC` the T/C (dose: 100.0 mg/kg/injection, schedule: Q01DX001 (ip), vehicle: saline sonified) was 100 % of control, the T/C (dose: 200.0 mg/kg/injection, schedule: Q01DX001 (ip), vehicle: saline sonified) was 90 % of control and the T/C (dose: 400.0 mg/kg/injection, schedule: Q01DX001 (ip), vehicle: saline sonified) was 100 % of control.
`COC(=O)/C=C/CCOS(C)(=O)=O` was tested, and the T/C (dose: 100.0 mg/kg/injection, schedule: Q04DX002 (ip), vehicle: saline with Tween-80) was 104 % of control, the T/C (dose: 200.0 mg/kg/injection, schedule: Q04DX002 (ip), vehicle: saline with Tween-80) was 124 % of control and the T/C [7] was 107 % of control.
`NC1=NC(=O)NC1(c1ccccc1)c1ccccc1` was tested, and the T/C [2] was 107 % of control, the T/C [3] was 91 % of control and the T/C [6] was 90 % of control. The T/C [8] was 94 % of control.
For `CCCCS(=O)(=O)OCCCCOS(=O)(=O)CCCC`, the T/C [3] was 113 % of control, the T/C [9] was 104 % of control and the T/C [6] was 118 % of control. For the same molecule, the T/C [10] was 109 % of control, the T/C (dose: 264.0 mg/kg/injection, schedule: Q04DX003 (ip), vehicle: saline with Tween-80) was 91 % of control and the T/C [8] was 122 % of control. The T/C [11] was 95 % of control and the T/C (dose: 600.0 mg/kg/injection, schedule: Q04DX003 (ip), vehicle: saline with Tween-80) was 104 % of control.
With `O=C(O)CCCc1ccc(Oc2ccccc2)cc1` the T/C (dose: 100.0 mg/kg/injection, schedule: Q04DX003 (ip), vehicle: other) was 92 % of control, the T/C (dose: 200.0 mg/kg/injection, schedule: Q04DX003 (ip), vehicle: other) was 93 % of control and the T/C (dose: 400.0 mg/kg/injection, schedule: Q04DX003 (ip), vehicle: other) was 86 % of control.
In the case of `Nc1c(Br)cc2c(c1Br)Cc1cc(Br)ccc1-2`, the T/C [3] is reported as 91 % of control and the T/C [6] is reported as 87 % of control.
With `CCCCCCCC(=O)Nc1ccc(C)c(C)c1` the T/C [9] was 109 % of control, the T/C [10] was 109 % of control and the T/C [11] was 109 % of control.
With `COC1CCC(C)(C=O)C(C#N)(C#N)C1(C#N)C#N` (stereo not drawn) the T/C [12] was 98 % of control, the T/C [13] was 114 % of control and the T/C [14] was 109 % of control.
In the case of `COc1ccc(/C=C2\C(=O)C(c3ccccc3)N(c3ccccc3)C2=O)cc1` (stereo not drawn), the T/C [7] is reported as 88 % of control.
With `CC(C)(C)NC1=NCCO1` the T/C [1] was 100 % of control, the T/C [2] was 100 % of control and the T/C [3] was 100 % of control.
For `CCOC(=O)C1=C(C)NC(C)=C(C(=O)OCC)C1c1ccccc1Cl`, the T/C (dose: 28.75 mg/kg/injection, schedule: Q04DX003 (ip), vehicle: Klucel (hydroxypropylcellulose) (HPC)) was 95 % of control, the T/C (dose: 57.5 mg/kg/injection, schedule: Q04DX003 (ip), vehicle: Klucel (hydroxypropylcellulose) (HPC)) was 104 % of control and the T/C (dose: 75.0 mg/kg/injection, schedule: Q01DX009 (ip), vehicle: Klucel (hydroxypropylcellulose) (HPC)) was 90 % of control. For the same molecule, the T/C (dose: 115.0 mg/kg/injection, schedule: Q01DX009 (ip), vehicle: Klucel (hydroxypropylcellulose) (HPC)) was 86 % of control, the T/C (dose: 115.0 mg/kg/injection, schedule: Q04DX003 (ip), vehicle: Klucel (hydroxypropylcellulose) (HPC)) was 100 % of control and the T/C (dose: 170.0 mg/kg/injection, schedule: Q01DX001 (ip), vehicle: Klucel (hydroxypropylcellulose) (HPC)) was 100 % of control. The T/C (dose: 260.0 mg/kg/injection, schedule: Q01DX001 (ip), vehicle: Klucel (hydroxypropylcellulose) (HPC)) was 100 % of control.
For `CCOC1CC(C)C(C=O)C(C#N)(C#N)C1(C#N)C#N` (stereo not drawn), the T/C [12] was 100 % of control, the T/C [13] was 109 % of control and the T/C [14] was 106 % of control.
`Cc1n(CC(C)C)c2c([n+]1CC(=O)c1ccc([N+](=O)[O-])cc1)C(=O)c1ccccc1C2=O` was tested, and the T/C (dose: 1.25 mg/kg/injection, schedule: Q01DX010 (ip), vehicle: saline) was 118 % of control, the T/C (dose: 2.5 mg/kg/injection, schedule: Q01DX010 (ip), vehicle: saline) was 122 % of control and the T/C (dose: 5.0 mg/kg/injection, schedule: Q01DX010 (ip), vehicle: saline) was 104 % of control.
For `CCN(CC)C(=O)Cn1ccc(NC(C)=O)nc1=O`, the T/C (dose: 100.0 mg/kg/injection, schedule: Q01DX009 (ip), vehicle: saline) was 104 % of control, the T/C [15] was 95 % of control and the T/C (dose: 200.0 mg/kg/injection, schedule: Q01DX009 (ip), vehicle: saline) was 86 % of control. The T/C [4] was 100 % of control, the T/C (dose: 400.0 mg/kg/injection, schedule: Q01DX009 (ip), vehicle: saline) was 100 % of control and the T/C [5] was 100 % of control.
With `Nc1nnc[se]1` the T/C (dose: 12.5 mg/kg/injection, schedule: Q01DX009 (ip), vehicle: saline with Tween-80) was 116 % of control, the T/C (dose: 12.5 mg/kg/injection, schedule: Q01DX009 (ip), vehicle: saline) was 96 % of control and the T/C [1] was 151 % of control. For the same molecule, the T/C (dose: 25.0 mg/kg/injection, schedule: Q01DX009 (ip), vehicle: saline) was 122 % of control and the T/C [2] was 164 % of control and 178 % of control.
For `CN1CCOP1OCC(F)(F)F` (stereo not drawn), the T/C (dose: 25.0 mg/kg/injection, schedule: Q01DX005 (ip), vehicle: saline) was 104 % of control, the T/C (dose: 50.0 mg/kg/injection, schedule: Q01DX005 (ip), vehicle: saline) was 93 % of control and the T/C (dose: 100.0 mg/kg/injection, schedule: Q01DX005 (ip), vehicle: saline) was 109 % of control.
`CCOCc1ccc(OCc2ccccc2)cc1` was tested, and the T/C [2] was 94 % of control, the T/C [3] was 108 % of control and the T/C [6] was 119 % of control.
`O=C(O)O.[Ce]` was tested, and the T/C [2] was 107 % of control and the T/C [3] was 107 % of control.
In the case of `O=CC(Cl)Cl`, the T/C (dose: 25.0 mg/kg/injection, schedule: Q04DX003 (ip), vehicle: saline) is reported as 100 % of control, the T/C (dose: 50.0 mg/kg/injection, schedule: Q04DX003 (ip), vehicle: saline) is reported as 95 % of control and the T/C [15] is reported as 100 % of control.
For `CC(C)COC(=O)c1cc(O)c(O)c(O)c1`, the T/C [1] was 95 % of control, the T/C [2] was 91 % of control and the T/C [3] was 112 % of control. The T/C [9] was 105 % of control, the T/C [6] was 103 % of control and the T/C [10] was 115 % of control. The T/C [8] was 103 % of control and the T/C [11] was 115 % of control.
With `O=C(O)/C=C/c1c(Cl)cccc1Cl` the T/C [2] was 106 % of control and the T/C [3] was 113 % of control.
With `CN1C(=O)NC2C(CO)OC1C2O` (stereo not drawn) the T/C (dose: 100.0 mg/kg/injection, schedule: Q01DX001 (ip), vehicle: saline) was 104 % of control, the T/C (dose: 200.0 mg/kg/injection, schedule: Q01DX001 (ip), vehicle: saline) was 104 % of control and the T/C (dose: 400.0 mg/kg/injection, schedule: Q01DX001 (ip), vehicle: saline) was 100 % of control.
`[Cl][Hg][c]1ccc2ccccc2c1` was tested, and the T/C (dose: 12.5 mg/kg/injection, schedule: Q01DX009 (ip), vehicle: gum acacia) was 112 % of control.
In the case of `COc1ccccc1NC(=O)Oc1ccc(OCc2ccccc2)cc1`, the T/C [9] is reported as 95 % of control, the T/C [10] is reported as 87 % of control and the T/C [11] is reported as 100 % of control.
In the case of `O=c1ccc2cc(-c3c(Oc4cc5ccc(O)cc5oc4=O)ccc4ccc(=O)oc34)c(O)cc2o1`, the T/C (dose: 3.0 mg/kg/injection, schedule: Q01DX009 (ip), vehicle: saline) is reported as 96 % of control, the T/C (dose: 6.0 mg/kg/injection, schedule: Q01DX009 (ip), vehicle: saline) is reported as 111 % of control and the T/C (dose: 12.0 mg/kg/injection, schedule: Q01DX009 (ip), vehicle: saline) is reported as 105 % of control.
With `Nc1nc(C=O)c(Cc2ccc(Br)cc2)c(=O)[nH]1` the T/C [1] was 123 % of control, the T/C (dose: 25.0 mg/kg/injection, schedule: Q04DX003 (ip), vehicle: saline with Tween-80) was 104 % of control and the T/C [2] was 123 % of control. The T/C (dose: 50.0 mg/kg/injection, schedule: Q04DX003 (ip), vehicle: saline with Tween-80) was 104 % of control, the T/C (dose: 66.0 mg/kg/injection, schedule: Q01DX009 (ip), vehicle: saline with Tween-80) was 110 % of control and the T/C [9] was 113 % of control.
